From patent publication EP4603105A1, “PHARMACEUTICAL COMPOSITION CONTAINING CYCLIC COMPOUND HAVING SELECTIVE KRAS INHIBITORY EFFECT AGAINST HRAS AND NRAS” (CHUGAI SEIYAKU KABUSHIKI KAISHA, priority 2022, dated 2024)
Read-outs that look alike come from different tables or passages of the source.

Legend:
[1] = tested on: human lung cancer strain NCI-H441; experiment: NCI-H441 cell proliferation inhibitory activity (CellTiter-Glo, 4 days); assay type: cell-based; details: read-out: NCl-H441 IC50
Procedure, shortened: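 Signal came from […] measured per well once the reagent was added. Beforehand, cells were cultured at 37°C and 5% carbon dioxide on a compound series serially diluted in dimethyl sulfoxide.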

[2] = target: GDP-bound NRAS wild-type protein (Homo sapiens, UniProt P01111); experiment: Binding to NRAS by surface plasmon resonance (SPR), KD and KD ratio to KRAS
Procedure, shortened: (§1)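 Each cycle, GDP-bound biotin-Avi RAS was captured (~100–300 RU), compound concentrations were injected low to high for 75 s each at 100 µL/min, then the chip was regenerated. Buffer: HBS pH 7.4, 10 mM MgCl2, 10 µM GDP, 1 mM DTT, 4% DMSO; 30°C. KD from a 1:1 binding model.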

[3] = target: GDP-bound KRAS wild-type protein (Homo sapiens, UniProt P01116); experiment: Binding to KRAS by surface plasmon resonance (SPR), dissociation constant KD
Procedure, shortened: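 Measured at 30°C: SPR with GDP-loaded, E. coli-expressed biotin-Avi RAS captured (~100–300 RU), ascending 75 s compound injections, HBS pH 7.4 with GDP, MgCl2, 4% DMSO. KD from 1:1 fit.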

HRAS wild-type protein = HRAS wild-type protein (Homo sapiens, UniProt P01112); experiment: Binding to HRAS by surface plasmon resonance (SPR), KD and KD ratio to KRAS
Procedure, shortened: as §1

[4] = ratio of KD for GDP-bound NRAS wild-type protein to KD for KRAS
[5] = ratio of KD for HRAS wild-type protein to KD for KRAS
[6] = 50% proliferation inhibitory concentration, four days
[7] = ratio of KD with respect to GDP-bound NRAS wild-type protein to KD with respect to KRAS
[8] = Single Cycle Kinetics, 1:1 binding model
[9] = ratio of KD with respect to HRAS wild-type protein to KD with respect to KRAS

Chain of GDP-bound NRAS wild-type protein (P01111 whole entry): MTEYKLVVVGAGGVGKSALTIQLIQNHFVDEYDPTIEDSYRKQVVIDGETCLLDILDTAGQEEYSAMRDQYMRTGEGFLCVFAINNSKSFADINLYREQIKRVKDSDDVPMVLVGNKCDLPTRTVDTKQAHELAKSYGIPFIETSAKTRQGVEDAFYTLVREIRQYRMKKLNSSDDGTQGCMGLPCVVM
Chain of HRAS wild-type protein (P01112 whole entry): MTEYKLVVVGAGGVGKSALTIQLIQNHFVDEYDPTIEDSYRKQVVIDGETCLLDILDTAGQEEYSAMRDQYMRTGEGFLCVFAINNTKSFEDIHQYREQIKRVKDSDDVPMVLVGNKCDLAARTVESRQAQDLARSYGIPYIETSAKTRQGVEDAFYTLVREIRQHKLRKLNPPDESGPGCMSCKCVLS
Chain of GDP-bound KRAS wild-type protein (P01116 1-188 isoform P01116-2): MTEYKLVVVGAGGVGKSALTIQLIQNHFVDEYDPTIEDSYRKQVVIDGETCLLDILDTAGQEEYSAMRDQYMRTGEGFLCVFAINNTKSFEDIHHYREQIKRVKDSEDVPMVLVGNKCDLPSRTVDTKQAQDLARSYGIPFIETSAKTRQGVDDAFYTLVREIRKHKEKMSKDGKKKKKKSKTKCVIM

| IC50 ([1]; NCI-H441 cells, 4 days) [nM] | Kd ([3]; 1:1 binding model) [nM] | Kd ([3]; Single Cycle Kinetics) [nM] | IC50 [1, 6] [nM] | Kd [3, 8] [nM] | Compound | NRAS /KRAS [2, 4] | HRAS /KRAS (HRAS wild-type protein; [5]) | NRAS /KRAS [2, 7] | HRAS /KRAS (HRAS wild-type protein; [9]) |
| --- | --- | --- | --- | --- | --- | --- | --- | --- | --- |
| 61.4 | 1 |  |  |  | CCC[C@H]1C(=O)N[C@@H]([C@@H](C)CC)C(=O)N2CCC[C@H]2C(=O)N(C)[C@H]2C/C=C\CCN(C2=O)[C@@H](Cc2ccc(C(F)F)cc2)C(=O)N(C)CC(=O)N[C@@H](CCc2ccc(Cl)c(Cl)c2)C(=O)N2C[C@H](OCC)C[C@H]2C(=O)NC2(CC(C)(C)C2)C(=O)N(C)[C@@H](C(CC)CC)C(=O)N(C)[C@H](C(=O)N(C)C)CC(=O)N1C [PP2637] | AA (a compound having 20 or more is denoted as AA) | A (a compound having 10 or more and less than 20 is denoted as A) |  |  |
|  |  |  | 33.5 | 0.43 | CCO[C@@H]1C[C@H]2C(=O)NC3(CCC3)C(=O)N(C)[C@@H](C3CCCC3)C(=O)N(C)[C@H](C(=O)N3CCOCC3)CC(=O)N(C)[C@@H](Cc3ccc(Cl)c(Cl)c3)C(=O)N[C@@H]([C@@H](C)CC)C(=O)N(C)CC(=O)N(C)[C@H]3CCCCCN(C3=O)[C@@H](Cc3ccc(F)cc3)C(=O)N(C)CC(=O)N[C@@H](CCc3cc(F)c(C(F)(F)F)c(F)c3)C(=O)N2C1 [PP1188] |  |  | B (a compound having 3 or more and less than 10 is denoted as B) | B (a compound having 3 or more and less than 10 is denoted as B) |
| 195 | 1.6 |  |  |  | CCCOC[C@H]1C(=O)N[C@@H]([C@@H](C)CC)C(=O)N(C)CC(=O)N(C)[C@H]2C/C=C\CCN(C2=O)[C@@H](CC2CCC(F)(F)CC2)C(=O)N(C)CC(=O)N[C@@H](CCc2ccc(C(F)(F)F)c(OC)c2)C(=O)N2C[C@@H](C)C[C@H]2C(=O)NC2(CC(C)(C)C2)C(=O)N(C)[C@@H](C(CC)CC)C(=O)N(C)[C@H](C(=O)N(C)C)CC(=O)N1C [PP2483] | A (a compound having 10 or more and less than 20 is denoted as A) | A (a compound having 10 or more and less than 20 is denoted as A) |  |  |
| 2.5 |  | 0.069 |  |  | CCC[C@H]1C(=O)N[C@@H](C2CCCC2)C(=O)N(C)CC(=O)N(C)[C@H]2C/C=C\CCN(C2=O)[C@@H](Cc2ccc(C(F)(F)F)cc2)C(=O)N(C)CC(=O)N[C@@H](CCc2ccc(C(F)(F)F)c(OC)c2)C(=O)N2CC3(CC3)C[C@H]2C(=O)N(C)C2(CCC2)C(=O)N(C)[C@@H](CC(C)(C)C)C(=O)N(C)[C@H](C(=O)N(C)C)CC(=O)N1C [PP3317] | B (a compound having 3 or more and less than 10 is denoted as B) | B (a compound having 3 or more and less than 10 is denoted as B) |  |  |
|  |  |  | 89.4 | 0.55 | CCO[C@@H]1C[C@H]2C(=O)NC3(CCC3)C(=O)N(C)[C@@H](C(CC)CC)C(=O)N(C)[C@H](C(=O)N3CCCC3)CC(=O)N(C)[C@@H](COC)C(=O)N[C@@H]([C@@H](C)CC)C(=O)N(C)CC(=O)N(C)[C@H]3C/C=C\CCN(C3=O)[C@@H](CC3CCCCC3)C(=O)N(C)CC(=O)N[C@@H](CCc3cc(F)c(C(F)(F)F)c(F)c3)C(=O)N2C1 [PP1438] |  |  | AA (a compound having 20 or more is denoted as AA) | A (a compound having 10 or more and less than 20 is denoted as A) |
| 7.4 |  | 0.064 |  |  | CCC[C@H]1C(=O)N[C@@H]([C@@H](C)CC)C(=O)N(C)CC(=O)N(C)[C@H]2C/C=C\CCN(C2=O)[C@@H](Cc2ccc(C(F)(F)F)cc2)C(=O)N(C)CC(=O)N[C@@H](CCc2ccc(C(F)(F)F)c(Cl)c2)C(=O)N2CC[C@H](OC)[C@H]2C(=O)N(C)C2(CCC2)C(=O)N(C)[C@@H](C2CCCC2)C(=O)N(C)[C@H](C(=O)N(C)C)CC(=O)N1C [PP3231] | A (a compound having 10 or more and less than 20 is denoted as A) | A (a compound having 10 or more and less than 20 is denoted as A) |  |  |

Further lines, the molecule ahead of its results:

| Compound | IC50 ([1]; NCI-H441 cells, 4 days) [nM] | Kd ([3]; 1:1 binding model) [nM] | Kd ([3]; Single Cycle Kinetics) [nM] | IC50 [1, 6] [nM] | Kd [3, 8] [nM] | NRAS /KRAS [2, 4] | HRAS /KRAS (HRAS wild-type protein; [5]) | NRAS /KRAS [2, 7] | HRAS /KRAS (HRAS wild-type protein; [9]) |
| --- | --- | --- | --- | --- | --- | --- | --- | --- | --- |
| CCO[C@@H]1C[C@H]2C(=O)NC3(CC(C)(C)C3)C(=O)N(C)[C@@H](C(CC)CC)C(=O)N(C)[C@H](C(=O)N(C)C)CC(=O)N(C)[C@@H](C(C)C)C(=O)N[C@@H]([C@@H](C)CC)C(=O)N(C)CC(=O)N(C)[C@H]3C/C=C\CCN(C3=O)[C@@H](CC3CCC(F)(F)CC3)C(=O)N(C)CC(=O)N[C@@H](CCc3cc(F)c(C(F)(F)F)c(F)c3)C(=O)N2C1 [PP2481] | 33.6 | 1.6 |  |  |  | A (a compound having 10 or more and less than 20 is denoted as A) | A (a compound having 10 or more and less than 20 is denoted as A) |  |  |
| CCC[C@H]1C(=O)N[C@@H]([C@@H](C)CC)C(=O)N(C2CC2)CC(=O)N(C)[C@H]2C/C=C\CCN(C2=O)[C@@H](Cc2ccc(C)cc2)C(=O)N(C)CC(=O)N[C@@H](CCc2ccc(C(F)(F)F)c(OC)c2)C(=O)N2CC[C@H](OC)[C@H]2C(=O)N(C)C2(CCC2)C(=O)N(C)[C@@H](C2CCCC2)C(=O)N(C)[C@H](C(=O)N(C)C)CC(=O)N1C [PP3245] | 6.7 |  | 0.18 |  |  | A (a compound having 10 or more and less than 20 is denoted as A) | A (a compound having 10 or more and less than 20 is denoted as A) |  |  |
| CCO[C@@H]1C[C@H]2C(=O)NC3(CCCC3)C(=O)N(C)[C@@H](C3CCCC3)C(=O)N(C)[C@H](C(=O)N(C)C)CC(=O)N(C)[C@@H](CC(C)C)C(=O)N[C@@H]([C@@H](C)CC)C(=O)N(C)CC(=O)N(C)[C@H]3C/C=C\CCN(C3=O)[C@@H](CC3CCCCC3)C(=O)N(C)CC(=O)N[C@@H](CCc3cc(F)c(C(F)(F)F)c(F)c3)C(=O)N2C1 [PP1473] |  |  |  | 36.6 | 0.19 |  |  | A (a compound having 10 or more and less than 20 is denoted as A) | A (a compound having 10 or more and less than 20 is denoted as A) |
| CCC[C@H]1C(=O)N[C@@H]([C@@H](C)CC)C(=O)N(C2CC2)CC(=O)N(C)[C@H]2C/C=C\CCN(C2=O)[C@@H](Cc2ccc(C)cc2)C(=O)N(C)CC(=O)N[C@@H](CCc2ccc(Cl)c(Cl)c2)C(=O)N2C[C@H](OC(C)C)C[C@H]2C(=O)NC2(CC(C)(C)C2)C(=O)N(C)[C@@H](C2CCCC2)C(=O)N(C)[C@H](C(=O)N(C)C)CC(=O)N1C [PP2571] | 76.1 | 1 |  |  |  | A (a compound having 10 or more and less than 20 is denoted as A) | A (a compound having 10 or more and less than 20 is denoted as A) |  |  |
| CCO[C@@H]1C[C@H]2C(=O)NC3(CCC3)C(=O)N(C)[C@@H](C3CCCC3)C(=O)N(C)[C@H](C(=O)N3CCOCC3)CC(=O)N(C)[C@@H](Cc3ccsc3)C(=O)N[C@@H]([C@@H](C)CC)C(=O)N(C)CC(=O)N(C)[C@H]3CCCCCN(C3=O)[C@@H](Cc3ccc(C(F)(F)F)cc3)C(=O)N(C)CC(=O)N[C@@H](CCc3cc(F)c(C(F)(F)F)c(F)c3)C(=O)N2C1 [PP1164] |  |  |  | 95.9 | 0.52 |  |  | B (a compound having 3 or more and less than 10 is denoted as B) | B (a compound having 3 or more and less than 10 is denoted as B) |
| CCC[C@H]1C(=O)N[C@@H]([C@@H](C)CC)C(=O)N(C2CC2)CC(=O)N(C)[C@H]2C/C=C\CCN(C2=O)[C@@H](Cc2ccc(C)cc2)C(=O)N(C)CC(=O)N[C@@H](CCc2ccc(Cl)c(Cl)c2)C(=O)N2C[C@H](OCC)C[C@H]2C(=O)NC2(CC(C)(C)C2)C(=O)N(C)[C@@H](CC2CCC2)C(=O)N(C)[C@H](C(=O)N(C)C)CC(=O)N1C [PP2761] | 68.4 | 2.8 |  |  |  | A (a compound having 10 or more and less than 20 is denoted as A) | A (a compound having 10 or more and less than 20 is denoted as A) |  |  |
| CC[C@H](C)[C@@H]1NC(=O)[C@H](COC)N(C)C(=O)C[C@@H](C(=O)N(C)C)N(C)C(=O)[C@H](C2CCCCC2)N(C)C(=O)C2(CC(C)(C)C2)NC(=O)[C@@H]2C[C@@H](OC(C)C)CN2C(=O)[C@H](CCc2ccc(Cl)c(Cl)c2)NC(=O)CN(C)C(=O)[C@H](Cc2ccc(C(F)(F)F)cc2)N2CC/C=C\C[C@@H](C2=O)N(C)C(=O)CN(C)C1=O [PP2662] | 13.1 | 0.29 |  |  |  | AA (a compound having 20 or more is denoted as AA) | A (a compound having 10 or more and less than 20 is denoted as A) |  |  |
| CCC[C@H]1C(=O)N[C@@H]([C@@H](C)CC)C(=O)N(C)CC(=O)N(C)[C@H]2C/C=C\CCN(C2=O)[C@@H](Cc2ccc(C(F)(F)F)cc2)C(=O)N(C)CC(=O)N[C@@H](CCc2ccc(C(F)(F)F)c(OC)c2)C(=O)N2CC3(CC3)C[C@H]2C(=O)NC2(CCC2)C(=O)N(C)[C@@H](C2CCCC2)C(=O)N(C)[C@H](C(=O)N(C)C)CC(=O)N1C [PP3438] | 8.9 |  | 0.062 |  |  | A (a compound having 10 or more and less than 20 is denoted as A) | A (a compound having 10 or more and less than 20 is denoted as A) |  |  |
| CCOC[C@H]1C(=O)N[C@@H]([C@@H](C)CC)C(=O)N(C)CC(=O)N(C)[C@H]2C/C=C\CCN(C2=O)[C@@H](Cc2ccc(C)cc2)C(=O)N(C)CC(=O)N[C@@H](CCc2ccc(C(F)(F)F)c(Cl)c2)C(=O)N2C[C@H](OCC)C[C@H]2C(=O)NC2(CC(C)(C)C2)C(=O)N(C)[C@@H](C2CCCC2)C(=O)N(C)[C@H](C(=O)N(C)CC)CC(=O)N1C [PP2401] | 5.3 | 0.12 |  |  |  | A (a compound having 10 or more and less than 20 is denoted as A) | A (a compound having 10 or more and less than 20 is denoted as A) |  |  |
